How the values were obtained:
serum corticosteroids = test: Serum corticosterone; assay type: in vivo, Wistar rats; conditions: 0.3 mg/kg s.c., 1 hour; control 7 ± 1; * statistically significant
Protocol: (§1) The following protocol was employed. 150-200 g. Wistar rats were given 0.3 mg/kg subcutaneously of (±)-4-di-n-propylamino-6-substituted-1,3,4,5-tetrahydrobenz[c,d]indole.Then, 60 minutes later each rat was decapitated and the hypothalamus and striatum were dissected out and extracted. The amounts of homovanillic acid (HVA) and 3,4-dihydroxyphenylacetic acid (DOPAC) in the striatum and of 5-hydroxyindoleacetic acid (5HIAA) in the hypothalamus were measured by high-performance liquid chromatography, using electrochemical detection. Serum corticosteroids were also measured. In the table, columns 1 and 2 give the substitution pattern in the compounds of formula IV, columns 3-5, the 5HT or dopamine metabolite concentrations, and column 6, the serum corticosteroids.
(§2) Compounds were injected at 0.3 mg/kg s.c. 1 hour before rats were killed.

[1] = biological target: T1, ^3 H-spiperone receptor binding, rat cerebral cortex membranes (Rattus norvegicus, UniProt P14842); test: Receptor binding, inhibition of specific ^3 H-spiperone binding; set-up: species or system male Wistar rats; conditions: 15 min at 37°, pH 7.4, 0.6-0.7 nM ^3 H-spiperone, read-out: ^3 H-Ligand-IC50, ^3 H-SPIP
T1 construct: The cerebral cortex was dissected out and then homogenized and centrifuged; from tissue; host or cells: cerebral cortex membranes of male Wistar rats
T1 sequence (P14842 whole entry): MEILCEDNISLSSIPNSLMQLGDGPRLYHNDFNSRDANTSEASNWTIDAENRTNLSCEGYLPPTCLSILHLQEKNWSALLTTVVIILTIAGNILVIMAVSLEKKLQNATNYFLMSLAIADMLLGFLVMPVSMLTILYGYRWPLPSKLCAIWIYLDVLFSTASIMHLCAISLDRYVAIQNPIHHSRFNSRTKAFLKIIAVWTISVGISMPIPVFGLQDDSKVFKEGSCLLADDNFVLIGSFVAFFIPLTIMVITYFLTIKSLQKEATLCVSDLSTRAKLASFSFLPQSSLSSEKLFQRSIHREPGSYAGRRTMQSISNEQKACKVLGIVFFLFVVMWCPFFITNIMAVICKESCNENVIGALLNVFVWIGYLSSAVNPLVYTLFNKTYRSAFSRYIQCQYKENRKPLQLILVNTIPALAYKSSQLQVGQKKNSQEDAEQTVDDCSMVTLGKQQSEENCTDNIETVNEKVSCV
Protocol: The cerebral cortex was dissected out and then homogenized and centrifuged according to the method described by Nelson and coworkers Mol. Pharmacol., 14, 983-995 (1978), using preincubation in buffer without added monoamine oxidase inhibitor in order to eliminate endogenous serotonin. For receptor binding, each sample contained 300-400 μg. of membrane protein and 10 μM pargyline in addition to the ^3 H-ligand in 1 ml. of 0.05 M Tris buffer, pH=7.4. The assay of serotonin binding was done following the method of Bennett and Snyder, Mol. Pharmacol., 12, 373-389 (1976), and that for tritiated spiperone according to Peroutka and Snyder, Mol. Pharmacol. 16 687-699 (1979). The samples were incubated for 15 minutes at 37° and were then filtered through GF/C glass fiber filter pads using a Brandel M-24 cell harvester modified for receptor binding. After two 5 ml. rinses, the filter discs were put into scintillation vials and counted in 10 ml. of Amersham PCS scintillation fluid. Nonspecific binding of ^3 H-serotonin (^3 H-5HT) was determined in the presence of 10^-5 M serotonin and of ^3 H-spiperone in the presence of 10^-6 M LSD. Specific binding was calculated as the difference between total binding with no added nonradioactive compound and the nonspecific binding.

[2] = tested on: serotonin metabolites in brain (5HIAA in hypothalamus); test: Decrease of serotonin metabolite (5HIAA) in hypothalamus; assay type: in vivo, Wistar rats; conditions: 0.3 mg/kg s.c., 1 hour; control 2.59 ± .11; * statistically significant
Protocol: (§3) Secondly, as a measure of central serotonin agonist activity, the decrease of serotonin metabolites in brain was measured. Also the measure of dopamine agonist activity was indicated by changes in dopamine metabolites.
as §1, §2

[3] = tested on: dopamine metabolites in striatum; test: Changes in dopamine metabolites (DOPAC, HVA) in striatum; assay type: in vivo, Wistar rats; conditions: 0.3 mg/kg s.c., 1 hour, * statistically significant; for Dopamine Metabolites In Striatum, HVA: control 4.24 ± .27; for Dopamine Metabolites In Striatum, DOPAC: control 5.58 ± .38
Protocol: as §3, §1, §2

[4] = biological target: ^3 H-serotonin (^3 H-5HT) receptor binding, rat cerebral cortex membranes; test: Receptor binding, inhibition of specific ^3 H-5HT (tritiated serotonin) binding; set-up: species or system male Wistar rats; conditions: 15 min at 37°, pH 7.4, 2-3 nM ^3 H-serotonin, read-out: ^3 H-Ligand-IC50, ^3 H-5HT
serotonin = conditions: Harris and Uhle; cited from earlier work
[5] = tested on: dopamine uptake, bovine striatal membrane; conditions: in vitro; cited from earlier work
[6] = tested on: serotonin turnover in brain (5-HTP accumulation); test: 5-HTP accumulation in hypothalamus after decarboxylase block by m-hydroxybenzylhydrazine (serotonin turnover); assay type: in vivo, Wistar rats
Protocol: Thirdly, as a measure of central serotonin agonist activity, the test rats received (±)-4-di-n-propylamino-6-methoxy-1,3,4,5-tetrahydrobenz[c,d]indole. The decrease of serotonin turnover in brain was measured as a function of 5-hydroxytryptophane (5-HTP) accumulation when the decarboxylation of 5-HTP is blocked by m-hydroxybenzylhydrazine, using the above protocol, except that thirty minutes after injection of the drug, m-hydroxybenzylhydrazine was injected at 100 mg./kg. i.p. Then, 40 minutes later each rat was decapitated, the hypothalamus dissected out and extracted. The amount of 5-HTP in each extract were measured by high-performance liquid chromatography, using electrochemical detection. In normal rats, 5-HTP brain levels are so low as to be virtually undetectable. Thus, the control group received the same dose of m-hydroxybenzylhydrazine as the test rats but no drug.

Row | SMILES | Serum Corticosterone (serum corticosteroids) [MCG/100 ML] | IC50 [1] [nM] | 5HIAA In Hypothalamus [2] | Dopamine Metabolites In Striatum, HVA [3] | Dopamine Metabolites In Striatum, DOPAC [3] | IC50 [4] [nM] | serotonin antagonism (serotonin) | selective dopamine agonist, action in inhibiting dopamine uptake [5] | 5HTP Level in Nanomoles of Hypothalamus ± S.E. ([6]; 0.03 mg/kg, m-hydroxybenzylhydrazine 100 mg/kg i.p., zero dose 1.81 ± 0.11) [Nanomoles] | 5HTP Level in Nanomoles of Hypothalamus ± S.E. ([6]; 0.10 mg/kg, m-hydroxybenzylhydrazine 100 mg/kg i.p., zero dose 1.81 ± 0.11, * P < .05) [Nanomoles] | 5HTP Level in Nanomoles of Hypothalamus ± S.E. ([6]; 0.30 mg/kg, m-hydroxybenzylhydrazine 100 mg/kg i.p., zero dose 1.81 ± 0.11, * P < .05) [Nanomoles] | 5HTP accumulation ([6]; certain dose levels, hypothalamus) | 5HTP Level in Nanomoles of Hypothalamus ± S.E. ([6]; ip, 0.01 mg/kg) [Nanomoles]
1 | COc1ccc2[nH]cc3c2c1CC(N(C)C)C3 (racemic) [(±)-4-dimethylamino-6-methoxy-1,3,4,5-tetrahydrobenz[c,d]indole] | 41 ± 4 | 1490 | 1.69 ± .07 NMoles/G | 4.68 ± .21 NMoles/G | 7.15 ± .23 NMoles/G | 70 |  |  |  |  |  |  | 
2 | CC(=O)NC1Cc2c[nH]c3cccc(c23)C1=O (stereo not shown) [4-acetylamino-5-oxo derivative] |  |  |  |  |  |  | one exception |  |  |  |  |  | 
3 | CCCN(CCC)C1Cc2cccc3[nH]cc(c23)C1 (racemic) [(±)-4-di-n-propylamino-1,3,4-5-tetrahydrobenz[c,d]indole] |  |  |  |  |  |  |  | selective dopamine agonist |  |  |  |  | 
4 | CCCN(CCC)C1Cc2c[nH]c3ccc(OC)c(c23)C1 (racemic) [(±)-4-di-n-propylamino-6-methoxy-1,3,4,5-tetrahydrobenz[c,d]indole] | 48 ± 2 | 950 | 1.51 ± .05 NMoles/G | 2.43 ± .18 NMoles/G | 4.61 ± .10 NMoles/G | 50 |  |  | 1.72 ± 0.07 | 1.16 ± 0.05 | 0.97 ± 0.03 | significantly decreased 5HTP accumulation | 1.85 ± 0.06
